Biological target: recombinant human CCR5 receptor (Homo sapiens, UniProt P51681)
Assay: MIP-1α radioligand binding assay (scintillation proximity), CHO cell membranes
Conditions: displacement of 0.1 nM iodinated MIP-1α; negative log10 of IC50; average if tested more than once
Protocol: The ability of compounds to inhibit the binding of MIP-1α was assessed by an in vitro radioligand binding assay. Membranes were prepared from Chinese hamster ovary cells which expressed the recombinant human CCR5 receptor. These membranes were incubated with 0.1 nM iodinated MIP-1α, scintillation proximity beads and various concentrations of the compounds of the invention in 96-well plates. The amount of iodinated MIP-1α bound to the receptor was determined by scintillation counting. Competition curves were obtained for compounds and the concentration of compound which displaced 50% of bound iodinated MIP-1α was calculated (IC50).
In Table II the results are presented as Pic50 values. A Pic50 value is the negative log (to base 10) of the IC50 result, so an IC50 of 1 μM (that is 1×10^−6M) gives a Pic50 of 6. If a compound was tested more than once then the data below is an average of the probative tests results.

recombinant human CCR5 receptor, sequence (P51681 whole entry): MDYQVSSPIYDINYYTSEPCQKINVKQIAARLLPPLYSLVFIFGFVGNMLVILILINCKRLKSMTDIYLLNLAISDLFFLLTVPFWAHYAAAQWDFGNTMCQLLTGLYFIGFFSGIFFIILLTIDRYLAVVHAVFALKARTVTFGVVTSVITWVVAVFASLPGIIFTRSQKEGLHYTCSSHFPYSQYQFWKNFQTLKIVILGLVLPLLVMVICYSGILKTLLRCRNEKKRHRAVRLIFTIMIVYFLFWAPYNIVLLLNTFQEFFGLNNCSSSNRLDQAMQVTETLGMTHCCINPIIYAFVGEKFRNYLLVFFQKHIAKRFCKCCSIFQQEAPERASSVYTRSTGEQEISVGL

IC50: 0.0977 µM
SMILES: CCS(=O)(=O)N1CCN(C(CCN2CCC(CCCc3ccccc3)CC2)c2ccccc2)CC1 (stereo not shown) [Compound 3]
